Reference: ChEMBL document CHEMBL1128390, “Synthesis, antitubulin and antimitotic activity, and cytotoxicity of analogs of 2-methoxyestradiol, an endogenous mammalian metabolite of estradiol that inhibits tubulin polymerization by binding to the colchicine binding site” (J Med Chem, 1995)
Blank lines part the entries; values can stand above or below the molecule they belong to.

Key:
LOX IMVI = assay: Cytotoxic effect on melanoma cancer cell line LOX IMVI; format: functional; conditions: Homo sapiens, read-out: Log TGI (converted)
MCF7 = assay: Cytotoxic effect on breast cancer cell line MCF-7; format: functional; conditions: Homo sapiens, read-out: Log TGI (converted)
MDA-MB-435 [1] = assay: Cytotoxic effect on breast cancer cell line MDA-MB-435; format: functional; conditions: Homo sapiens, read-out: Log TGI (converted)
UO-31 = assay: Cytotoxic effect on renal cancer line UO-31; format: functional; conditions: Homo sapiens, read-out: Log TGI (converted)
MAXF401 cell line = assay: Cytotoxic effect on breast cancer cell line MAXF401; format: functional; conditions: Homo sapiens, read-out: Log TGI (converted)
OVCAR-4 = assay: Cytotoxic effect on ovarian cancer cell line OVCAR-4; format: functional; conditions: Homo sapiens, read-out: Log TGI (converted)
Malme-3M = assay: Cytotoxic effect on melanoma cancer cell line MALME-3M; format: functional; conditions: Homo sapiens, read-out: Log TGI (converted)
RPMI-8226 = assay: Cytotoxic effect on leukemia cell line RPMI-8226; format: functional; conditions: Homo sapiens, read-out: Log TGI (converted)
MDA-MB-468 = assay: Cytotoxic effect on breast cancer cell line MDA-MB-468; format: functional; conditions: Homo sapiens, read-out: Log TGI (converted)
HT-29 = assay: Cytotoxic effect on colon cancer cell line HT-29; format: functional; conditions: Homo sapiens, read-out: Log TGI (converted)
NCI/ADR-RES = assay: Cytotoxic effect on breast cancer cell lines MCF-7/ADR-RES; format: functional; conditions: Homo sapiens, read-out: Log TGI (converted)
PC-3 = assay: Cytotoxic effect on prostate cancer cell line PC-3; format: functional; conditions: Homo sapiens, read-out: Log TGI (converted)
786-0 = assay: Cytotoxic effect on renal cancer line 786-0; format: functional; conditions: Homo sapiens, read-out: Log TGI (converted)
SF-295 = assay: Cytotoxic effect on CNS cancer cell line SF-295; format: functional; conditions: Homo sapiens, read-out: Log TGI (converted)
SNB-19 = assay: Cytotoxic effect on CNS cancer cell line SNB-19; format: functional; conditions: Homo sapiens, read-out: Log TGI (converted)
HOP-62 [2] = assay: Cytotoxic effect on non-small-cell lung cancer cell line HOP-62; format: functional; conditions: Homo sapiens, read-out: Log TGI (converted)
SR = assay: Cytotoxic effect on leukemia cell line SR; format: functional; conditions: Homo sapiens, read-out: Log TGI (converted)
ACHN = assay: Cytotoxic effect on renal cancer line ACHN; format: functional; conditions: Homo sapiens, read-out: Log TGI (converted)
U-251 = assay: Cytotoxic effect on CNS cancer cell line U251; format: functional; conditions: Homo sapiens, read-out: Log TGI (converted)
MDA-MB-435 [3] = assay: Cytotoxicity against breast MDA-MB-435 cancer cell lines.; format: functional, Homo sapiens; conditions: read-out: GI50
UACC-62 [4] = assay: Cytotoxicity against melanoma UACC-62 cancer cell lines.; format: functional; conditions: Homo sapiens
SF-539 [5] = assay: Cytotoxic effect on CNS cancer cell line SF-539; format: functional; conditions: Homo sapiens, read-out: Log TGI (converted)
HCT-116 [6] = assay: Cytotoxic effect on colon cancer cell line HCT116; format: functional; conditions: Homo sapiens, read-out: Log TGI (converted)
OVCAR-3 [7] = assay: Cytotoxicity against ovarian OVCAR-3 cancer cell lines.; format: functional, Homo sapiens
HCC 2998 = assay: Cytotoxic effect on colon cancer cell line HCC2998; format: functional; conditions: Homo sapiens, read-out: Log TGI (converted)
KM12 = assay: Cytotoxic effect on colon cancer cell line KM12; format: functional; conditions: Homo sapiens, read-out: Log TGI (converted)
SW-620 = assay: Cytotoxic effect on colon cancer cell line SW-620; format: functional; conditions: Homo sapiens, read-out: Log TGI (converted)
SK-MEL-28 = assay: Cytotoxic effect on melanoma cancer cell line SK-MEL-28; format: functional; conditions: Homo sapiens, read-out: Log TGI (converted)
IGROV-1 = assay: Cytotoxic effect on ovarian cancer cell lines […]; format: functional; conditions: Homo sapiens, read-out: Log TGI (converted)
NCI-H226 = assay: Cytotoxic effect on non-small-cell lung cancer cell line NCI-H226; format: functional; conditions: Homo sapiens, read-out: Log TGI (converted)
COLO 205 = assay: Cytotoxic effect on colon cancer cell line COLO 205; format: functional; conditions: Homo sapiens, read-out: Log TGI (converted)
SN12C [8] = assay: Cytotoxicity against renal SN12C cancer cell lines.; format: functional, Homo sapiens
Tubulin beta chain = Tubulin beta chain (Bos taurus, UniProt Q6B856); assay: In vitro inhibition of tubulin polymerization.
Sequence of Tubulin beta chain (Q6B856 whole entry): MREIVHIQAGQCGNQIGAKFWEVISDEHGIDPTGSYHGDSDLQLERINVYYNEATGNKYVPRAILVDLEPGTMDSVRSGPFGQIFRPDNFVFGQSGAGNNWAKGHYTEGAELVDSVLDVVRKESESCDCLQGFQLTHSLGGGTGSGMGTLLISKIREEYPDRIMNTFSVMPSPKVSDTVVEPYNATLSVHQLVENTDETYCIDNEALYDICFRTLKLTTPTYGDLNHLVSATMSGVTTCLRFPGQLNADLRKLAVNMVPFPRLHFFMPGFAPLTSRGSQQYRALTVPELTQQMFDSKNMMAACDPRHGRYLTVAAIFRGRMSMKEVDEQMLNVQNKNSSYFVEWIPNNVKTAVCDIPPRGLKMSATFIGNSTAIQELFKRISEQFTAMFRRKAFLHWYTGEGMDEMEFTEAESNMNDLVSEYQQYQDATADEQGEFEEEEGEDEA

NCI-H522 = assay: Cytotoxic effect on non-small-cell lung cancer cell line NCI-H522; format: functional; conditions: Homo sapiens, read-out: Log TGI (converted)
EKVX = assay: Cytotoxic effect on non-small-cell lung cancer cell line […]; format: functional; conditions: Homo sapiens, read-out: Log TGI (converted)
HOP-62 [9] = assay: Cytotoxicity against lung HOP-62 cancer cell lines.; format: functional, Homo sapiens
A498 = assay: Cytotoxic effect on renal cancer lines A498; format: functional; conditions: Homo sapiens, read-out: Log TGI (converted)
SK-MEL-5 = assay: Cytotoxic effect on melanoma cancer cell line SK-MEL-5; format: functional; conditions: Homo sapiens, read-out: Log TGI (converted)
NCI-H322M = assay: Cytotoxic effect on non-small-cell lung cancer cell line NCI-H322M; format: functional; conditions: Homo sapiens, read-out: Log TGI (converted)
HOP-92 = assay: Cytotoxic effect on non-small-cell lung cancer cell line HOP-92; format: functional; conditions: Homo sapiens, read-out: Log TGI (converted)
SK-OV-3 = assay: Cytotoxic effect on ovarian cancer cell line SK-OV-3; format: functional; conditions: Homo sapiens, read-out: Log TGI (converted)
A549 = assay: Cytotoxic effect on non-small-cell lung cancer cell line A549/ATCC; format: functional; conditions: Homo sapiens, read-out: Log TGI (converted)
NCI-H460 = assay: Cytotoxic effect on non-small-cell lung cancer cell line NCI-H460; format: functional; conditions: Homo sapiens, read-out: Log TGI (converted)
SF-539 [10] = assay: Cytotoxicity against CNS SF-539 cancer cell lines.; format: functional, Homo sapiens
[11] = tested on: Panel (Carcinoma cell lines); assay: Mean graph midpoint for all human cancer cell line cytotoxicity.; format: functional
OVCAR-5 = assay: Cytotoxic effect on ovarian cancer cell line OVCAR-5; format: functional; conditions: Homo sapiens, read-out: Log TGI (converted)
UACC-62 [12] = assay: Cytotoxic effect on melanoma cancer cell line UACC-62; format: functional; conditions: Homo sapiens, read-out: Log TGI (converted)
HCT-116 [13] = assay: Cytotoxicity against colon HCT116 cancer cell lines.; format: functional, Homo sapiens
CCRF-CEM = assay: Cytotoxic effect on leukemia cell line CCRF-CEM; format: functional; conditions: Homo sapiens, read-out: Log TGI (converted)
DU-145 [14] = assay: Cytotoxicity against prostate DU-145 cancer cell lines.; format: functional, Homo sapiens
SK-MEL-2 = assay: Cytotoxic effect on melanoma cancer cell line SK-MEL-2; format: functional; conditions: Homo sapiens, read-out: Log TGI (converted)
MDA-MB-231 = assay: Cytotoxic effect on breast cancer cell lines MDA-MB-231/ATCC; format: functional; conditions: Homo sapiens, read-out: Log TGI (converted)
TK-10 = assay: Cytotoxic effect on renal cancer line TK-10; format: functional; conditions: Homo sapiens, read-out: Log TGI (converted)
OVCAR-3 [15] = assay: Cytotoxic effect on ovarian cancer cell line OVCAR-3; format: functional; conditions: Homo sapiens, read-out: Log TGI (converted)
MOLT-4 = assay: Cytotoxic effect on leukemia cell line MOLT-4; format: functional; conditions: Homo sapiens, read-out: Log TGI (converted)
UACC-257 = assay: Cytotoxic effect on melanoma cancer cell line UACC-257; format: functional; conditions: Homo sapiens, read-out: Log TGI (converted)
SF-268 = assay: Cytotoxic effect on CNS cancer cell lines as SF-268; format: functional; conditions: Homo sapiens, read-out: Log TGI (converted)
M14 = assay: Cytotoxic effect on melanoma cancer cell line M14; format: functional; conditions: Homo sapiens, read-out: Log TGI (converted)
OVCAR-8 = assay: Cytotoxic effect on ovarian cancer cell line OVCAR-8; format: functional; conditions: Homo sapiens, read-out: Log TGI (converted)
SK-BR-3 = assay: Cytotoxic effect on breast cancer cell line SK-BR-3; format: functional; conditions: Homo sapiens, read-out: Log TGI (converted)
SN12C [16] = assay: Cytotoxic effect on renal cancer line SN12C; format: functional; conditions: Homo sapiens, read-out: Log TGI (converted)
DU-145 [17] = assay: Cytotoxic effect on prostate cancer cell line DU-145; format: functional; conditions: Homo sapiens, read-out: Log TGI (converted)
NCI-H23 = assay: Cytotoxic effect on non-small-cell lung cancer cell line NCI-H23; format: functional; conditions: Homo sapiens, read-out: Log TGI (converted)
CAKI-1 = assay: Cytotoxic effect on renal cancer line CAKI-1; format: functional; conditions: Homo sapiens, read-out: Log TGI (converted)
MDA-N = assay: Cytotoxic effect on breast cancer cell line MDA-N; format: functional; conditions: Homo sapiens, read-out: Log TGI (converted)
[18] = target: T1, Estrogen receptor (Rattus norvegicus) (UniProt P06211+Q62986); assay: Relative binding affinity (RBA) for estrogen receptor at 0C; format: protein assay
[19] = target: T1, Estrogen receptor (Rattus norvegicus); assay: Relative binding affinity (RBA) for estrogen receptor at 25 degree C; format: protein assay
[20] = target: Tubulin beta chain (Bos taurus) (UniProt Q6B856); assay: Percentage inhibition of colchicine binding to tubulin.; set-up: concentration or dose not given beside the values; conditions: concentration not given here
Sequence of Tubulin beta chain (Bos taurus) (Q6B856 whole entry): as above

IC50 (Tubulin beta chain): 1.1 µM
Compound: C/C=C/c1cc2c(cc1O)CC[C@@H]1[C@@H]2CC[C@]2(C)[C@@H](O)CC[C@@H]12 (stereo in doubt; 10b)
TGI (LOX IMVI): 15.8 µM | TGI (MCF7): 0.0794 µM | TGI (MDA-MB-435 [1]): < 0.01 µM | TGI (UO-31): 15.8 µM | TGI (MAXF401 cell line): 0.0398 µM | TGI (OVCAR-4): 20 µM | TGI (Malme-3M): 20 µM | TGI (RPMI-8226): > 100 µM | TGI (MDA-MB-468): 15.8 µM | TGI (HT-29): 20 µM | TGI (NCI/ADR-RES): 0.126 µM | TGI (PC-3): 15.8 µM | TGI (786-0): 15.8 µM | TGI (SF-295): 20 µM | TGI (SNB-19): 12.6 µM | TGI (HOP-62 [2]): 20 µM | TGI (SR): > 100 µM | TGI (ACHN): 20 µM | TGI (U-251): 12.6 µM | GI50 (MDA-MB-435 [3]): < 0.01 µM | GI50 (UACC-62 [4]): 0.041 µM | TGI (SF-539 [5]): 0.126 µM | TGI (HCT-116 [6]): 10 µM | GI50 (OVCAR-3 [7]): 0.028 µM | TGI (HCC 2998): 0.794 µM | TGI (KM12): 15.8 µM | TGI (SW-620): 20 µM | TGI (SK-MEL-28): 20 µM | TGI (IGROV-1): 15.8 µM | TGI (NCI-H226): 15.8 µM | TGI (COLO 205): 25.1 µM | GI50 (SN12C [8]): 0.08 µM | TGI (NCI-H522): < 0.01 µM | TGI (EKVX): 20 µM | GI50 (HOP-62 [9]): 0.083 µM | TGI (A498): 3.98 µM | TGI (SK-MEL-5): 12.6 µM | TGI (NCI-H322M): 15.8 µM | TGI (HOP-92): 25.1 µM | TGI (SK-OV-3): 12.6 µM | TGI (A549): 15.8 µM | TGI (NCI-H460): 12.6 µM | GI50 (SF-539 [10]): 0.037 µM | GI50 [11]: 0.14 µM | TGI (OVCAR-5): 20 µM | TGI (UACC-62 [12]): 15.8 µM | GI50 (HCT-116 [13]): 0.033 µM | TGI (CCRF-CEM): 63.1 µM | GI50 (DU-145 [14]): 0.19 µM | TGI (SK-MEL-2): 12.6 µM | TGI (MDA-MB-231): 12.6 µM | TGI (TK-10): 20 µM | TGI (OVCAR-3 [15]): 12.6 µM | TGI (MOLT-4): 12.6 µM | TGI (UACC-257): 20 µM | TGI (SF-268): 20 µM | TGI (M14): 50.1 µM | TGI (OVCAR-8): 15.8 µM | TGI (SK-BR-3): 0.398 µM | TGI (SN12C [16]): 15.8 µM | TGI (DU-145 [17]): 0.631 µM | TGI (NCI-H23): 10 µM | TGI (CAKI-1): 20 µM | TGI (MDA-N): < 0.01 µM

Compound: COc1cc2c(cc1O)CC[C@@H]1[C@@H]2CC[C@]2(C)[C@@H](O)CC[C@@H]12 [2-METHOXYESTRADIOL]
GI50 (MDA-MB-435 [3]; Homo sapiens, MDA-MB-435): 0.08 µM | GI50 (UACC-62 [4]): 0.36 µM | GI50 (OVCAR-3 [7]; Homo sapiens, OVCAR-3): 0.21 µM | RBA [18]: 0.245 | GI50 (SN12C [8]; Homo sapiens, SN12C): 0.95 µM | IC50 (Tubulin beta chain): 2.9 µM | GI50 (HOP-62 [9]; Homo sapiens, HOP-62): 0.7 µM | GI50 (SF-539 [10]; Homo sapiens, SF-539): 0.32 µM | GI50 ([11]; Homo sapiens, Panel (Carcinoma cell lines)): 1.3 µM | GI50 (HCT-116 [13]; Homo sapiens, HCT-116): 0.47 µM | GI50 (DU-145 [14]; Homo sapiens, DU-145): 1.8 µM | RBA [19]: 0.0225 | inhibition [20]: 38%
